{"source": "patent US5087417A", "about": "“Control of senescence in fruits, vegetables and flowers” (University of Waterloo, priority 1986, dated 1992)", "key": {"[1]": {"system": "petals of carnation flowers", "assay": "In vivo prevention of ethylene formation in carnation petals after incubation with ACC", "conditions": "1 mM taken up transpirationally", "procedure": "This Example illustrates the use of the glucose ester of ferulic acid for in vivo prevention of ethylene formation in carnations.\nThe glucose ester of ferulic acid (1 mM), isolated as described in Example 1, was taken up transpirationally into petals of carnation flowers. Ethylene production was determined as a percentage of the ethylene produced by untreated control petals at various times after incubation with ACC."}, "[2]": {"system": "lipoxygenase (LOX)", "assay": "Lipoxygenase activity, bean cotyledon membrane and cytosol", "type": "biochemical", "excerpt": "(§1) This Example illustrates the inhibition of lipoxygenase (LOX) activity by the glucose ester of ferulic acid."}, "[3]": {"system": "Microsomes from senescing carnation flowers", "assay": "Inhibition of ethylene formation in vitro in carnation microsomes", "type": "biochemical", "procedure": "This Example illustrates the inhibition of ethylene formation in vitro by the glucose ester of ferulic acid.\nMicrosomes from senescing carnation flowers were treated with varying quantities of the glucose ester of ferulic acid, isolated as described in Example 1, and the production of ethylene was determined as a percentage of the control production of ethylene in the absence of added ferulic acid ester"}, "[4]": {"assay": "Radical scavenging in a chemical system", "conditions": "tests with a chemical system"}, "[5]": {"system": "lipoxygenase (LOX)", "assay": "Lipoxygenase activity, carnation microsomal membranes", "type": "biochemical", "excerpt": "as §1"}}, "data": [{"molecule": "COc1cc(/C=C/C(=O)O[C@@H]2O[C@H](CO)[C@@H](O)[C@H](O)[C@H]2O)ccc1O", "note": "[glucose ester of ferulic acid]", "values": [{"measurement": "% Inhibition of ethylene production", "setting": "[1]; 12 hrs after treatment", "value": 100, "unit": "%"}, {"measurement": "% Inhibition of ethylene production", "setting": "[1]; 16 hrs after treatment", "value": 97.3, "unit": "%"}, {"measurement": "% Inhibition of ethylene production", "setting": "[1]; 21 hrs after treatment", "value": 90.4, "unit": "%"}, {"measurement": "% Inhibition of ethylene production", "setting": "[1]; 26 hrs after treatment", "value": 81.7, "unit": "%"}, {"measurement": "effect against LOX from other plant systems including bean cotyledons (in words)", "setting": "[2]", "value": "effective"}, {"measurement": "Lipoxygenase activity (% of control)", "setting": "[2]; 10 μg cytosol protein of 9 d bean cotyledon, 50 μM", "value": "48.4 % of control"}, {"measurement": "Lipoxygenase activity (% of control)", "setting": "[2]; 10 μg cytosol protein of 9 d bean cotyledon, 100 μM", "value": "35.9 % of control"}, {"measurement": "Lipoxygenase activity (% of control)", "setting": "[2]; 60 μg membrane protein of 9 d bean cotyledon, 50 μM", "value": "46.3 % of control"}, {"measurement": "Lipoxygenase activity (% of control)", "setting": "[2]; 60 μg membrane protein of 9 d bean cotyledon, 100 μM", "value": "37.8 % of control"}, {"measurement": "effect on enzyme activity in membrane and cytosol preparations (in words)", "setting": "[2]; 100 μm concentrations, all experiments", "value": "caused an inhibition of enzyme activity"}, {"measurement": "Ethylene Production", "setting": "[3]; Control + 10 μM of Additive", "value": "0.518 ± 0.019", "unit": "n1.100 μg^-1 protein h^-1"}, {"measurement": "Ethylene Production % Control", "setting": "[3]; Control + 10 μM of Additive", "value": 53.9, "unit": "%"}, {"measurement": "Ethylene Production", "setting": "[3]; Control + 50 μM of Additive", "value": "0.014 ± 0.005", "unit": "n1.100 μg^-1 protein h^-1"}, {"measurement": "Ethylene Production % Control", "setting": "[3]; Control + 50 μM of Additive", "value": 2.0, "unit": "%"}, {"measurement": "Ethylene Production", "setting": "[3]; Control + 100 μM of Additive", "value": 0, "unit": "n1.100 μg^-1 protein h^-1"}, {"measurement": "Ethylene Production % Control", "setting": "[3]; Control + 100 μM of Additive", "value": 0, "unit": "%"}, {"measurement": "ethylene formation (in words)", "setting": "[3]; concentration of 100 μM", "value": "zero"}, {"measurement": "radical scavenger activity (in words)", "setting": "[4]", "value": "shown promise as a full radial scavenger"}, {"measurement": "inhibition of lipoxygenase activity derived from carnation (in words)", "setting": "[5]; 40 μM solution", "value": "almost complete inhibition"}, {"measurement": "Lipoxygenase activity (% of control)", "setting": "[5]; 100 μg membrane protein from Stage IV carnation, 40 μM", "value": "1.8 % of control"}]}]}
